Values after ≈ are worked out from the molar mass of the structure shown.
Tests used:
Format in all cases: functional
[1] = tested on: Candida albicans; test: Antifungal activity against FCZ-resistant Candida albicans CaR by CLSI based broth microdilution method
[2] = tested on: Candida albicans; test: Antifungal activity against FCZ-resistant Candida albicans 17# by CLSI based broth microdilution method
[3] = tested on: Candida albicans; test: Antifungal activity against FCZ-resistant Candida albicans 632 by CLSI based broth microdilution method
[4] = tested on: Candida albicans; test: Antifungal activity against FCZ-resistant Candida albicans 901 by CLSI based broth microdilution method
[5] = tested on: Candida albicans; test: Antifungal activity against FCZ-resistant Candida albicans 904 by CLSI based broth microdilution method
[6] = tested on: Candida albicans; test: Antifungal activity against Candida albicans sc5314 by CLSI based broth microdilution method
[7] = tested on: Candida albicans; test: Antifungal activity against Candida albicans by CLSI based broth microdilution method
[8] = tested on: Nakaseomyces glabratus; test: Antifungal activity against Candida glabrata by CLSI based broth microdilution method
[9] = tested on: Candida parapsilosis; test: Antifungal activity against Candida parapsilosis by CLSI based broth microdilution method; conditions: Lodderomyces parapsilosis
[10] = tested on: Pichia kudriavzevii; test: Antifungal activity against Pichia kudriavzevii by CLSI based broth microdilution method
[11] = tested on: [Candida] zeylanoides; test: Antifungal activity against Candida zeylanoides by CLSI based broth microdilution method; conditions: Dujonia zeylanoides
[12] = tested on: Cryptococcus neoformans; test: Antifungal activity against Cryptococcus neoformans by CLSI based broth microdilution method
[13] = tested on: Aspergillus fumigatus; test: Antifungal activity against Aspergillus fumigatus by CLSI based broth microdilution method

Row | SMILES | MIC [1] | MIC [2] | MIC [3] | MIC [4] | MIC [5] | MIC [6] | MIC [7] | MIC [8] | MIC [9] | MIC [10] | MIC [11] | MIC [12] | MIC [13]
1 | Clc1ccc(C(Cn2cncn2)[Se][Se]C(Cn2cncn2)c2ccc(Cl)cc2)cc1 (stereo not drawn) | 4 µg/mL (≈ 7 µM) | 64 µg/mL (≈ 112 µM) | > 64 µg/mL | 16 µg/mL (≈ 28 µM) | 16 µg/mL (≈ 28 µM) | – | – | – | – | – | – | – | –
2 | Clc1ccc(C(Cn2cncn2)[Se]C(Cn2cncn2)c2ccc(Cl)cc2)cc1 (stereo not drawn) | 32 µg/mL (≈ 65 µM) | 8 µg/mL (≈ 16.3 µM) | > 64 µg/mL | 16 µg/mL (≈ 32.5 µM) | 64 µg/mL (≈ 130 µM) | 32 µg/mL (≈ 65 µM) | > 64 µg/mL | > 64 µg/mL | > 64 µg/mL | > 64 µg/mL | 16 µg/mL (≈ 32.5 µM) | 4 µg/mL (≈ 8.13 µM) | > 64 µg/mL
3 | Fc1ccc(C(Cn2cncn2)[Se][Se]C(Cn2cncn2)c2ccc(F)cc2F)c(F)c1 (stereo not drawn) | 16 µg/mL (≈ 27.9 µM) | 8 µg/mL (≈ 13.9 µM) | > 64 µg/mL | 16 µg/mL (≈ 27.9 µM) | 64 µg/mL (≈ 111 µM) | – | – | – | – | – | – | – | –
4 | Clc1ccc(C(Cn2ccnn2)[Se]C(Cn2ccnn2)c2ccc(Cl)cc2)cc1 (stereo not drawn) | > 64 µg/mL | > 64 µg/mL | > 64 µg/mL | > 64 µg/mL | > 64 µg/mL | > 64 µg/mL | > 64 µg/mL | 8 µg/mL (≈ 16.3 µM) | > 64 µg/mL | 32 µg/mL (≈ 65 µM) | 64 µg/mL (≈ 130 µM) | > 64 µg/mL | > 64 µg/mL
5 | Clc1ccc(C(Cn2ccnn2)[Se][Se]C(Cn2ccnn2)c2ccc(Cl)cc2)cc1 (stereo not drawn) | > 64 µg/mL | > 64 µg/mL | > 64 µg/mL | > 64 µg/mL | > 64 µg/mL | – | – | – | – | – | – | – | –
6 | Clc1ccc(C(Cn2ccnn2)[Se]C(Cn2ccnn2)c2ccc(Cl)cc2Cl)c(Cl)c1 (stereo not drawn) | 128 µg/mL (≈ 228 µM) | 4 µg/mL (≈ 7.13 µM) | > 64 µg/mL | > 64 µg/mL | > 64 µg/mL | > 64 µg/mL | > 64 µg/mL | 64 µg/mL (≈ 114 µM) | > 64 µg/mL | > 64 µg/mL | 32 µg/mL (≈ 57 µM) | 64 µg/mL (≈ 114 µM) | > 64 µg/mL
7 | Clc1ccc(C(Cn2cnnn2)[Se]C(Cn2cnnn2)c2ccc(Cl)cc2)cc1 (stereo not drawn) | > 64 µg/mL | > 64 µg/mL | > 64 µg/mL | > 64 µg/mL | > 64 µg/mL | > 64 µg/mL | > 64 µg/mL | > 64 µg/mL | > 64 µg/mL | > 64 µg/mL | > 64 µg/mL | > 64 µg/mL | > 64 µg/mL
8 | Fc1ccc(C(Cn2cncn2)[Se]C(Cn2cncn2)c2ccc(F)cc2)cc1 (stereo not drawn) | 64 µg/mL (≈ 139 µM) | 8 µg/mL (≈ 17.4 µM) | > 64 µg/mL | > 64 µg/mL | 64 µg/mL (≈ 139 µM) | 32 µg/mL (≈ 69.7 µM) | > 64 µg/mL | 64 µg/mL (≈ 139 µM) | > 64 µg/mL | > 64 µg/mL | 1 µg/mL (≈ 2.18 µM) | > 64 µg/mL | > 64 µg/mL
9 | Fc1ccc(C(Cn2ccnn2)[Se]C(Cn2ccnn2)c2ccc(F)cc2)cc1 (stereo not drawn) | > 64 µg/mL | > 64 µg/mL | > 64 µg/mL | > 64 µg/mL | > 64 µg/mL | > 64 µg/mL | > 64 µg/mL | 8 µg/mL (≈ 17.4 µM) | > 64 µg/mL | 64 µg/mL (≈ 139 µM) | 64 µg/mL (≈ 139 µM) | > 64 µg/mL | > 64 µg/mL
10 | Fc1ccc(C(Cn2ccnn2)[Se]C(Cn2ccnn2)c2ccc(F)cc2F)c(F)c1 (stereo not drawn) | 64 µg/mL (≈ 129 µM) | 4 µg/mL (≈ 8.08 µM) | > 64 µg/mL | > 64 µg/mL | > 64 µg/mL | > 64 µg/mL | > 64 µg/mL | 64 µg/mL (≈ 129 µM) | > 64 µg/mL | > 64 µg/mL | 1 µg/mL (≈ 2.02 µM) | 32 µg/mL (≈ 64.6 µM) | > 64 µg/mL
11 | Fc1ccc(C(Cn2cnnn2)[Se][Se]C(Cn2cnnn2)c2ccc(F)cc2)cc1 (stereo not drawn) | 16 µg/mL (≈ 29.6 µM) | 32 µg/mL (≈ 59.2 µM) | > 64 µg/mL | > 64 µg/mL | > 64 µg/mL | – | – | – | – | – | – | – | –
12 | Clc1ccc(C(Cn2ccnn2)[Se][Se]C(Cn2ccnn2)c2ccc(Cl)cc2Cl)c(Cl)c1 (stereo not drawn) | 4 µg/mL (≈ 6.25 µM) | 64 µg/mL (≈ 100 µM) | > 64 µg/mL | > 64 µg/mL | > 64 µg/mL | – | – | – | – | – | – | – | –
13 | Clc1ccc(C(Cn2cncn2)[Se][Se]C(Cn2cncn2)c2ccc(Cl)cc2Cl)c(Cl)c1 (stereo not drawn) | 8 µg/mL (≈ 12.5 µM) | 16 µg/mL (≈ 25 µM) | > 64 µg/mL | > 64 µg/mL | > 64 µg/mL | – | – | – | – | – | – | – | –
14 | Clc1ccc(C(Cn2cncn2)[Se]C(Cn2cncn2)c2ccc(Cl)cc2Cl)c(Cl)c1 (stereo not drawn) | 32 µg/mL (≈ 57 µM) | 8 µg/mL (≈ 14.3 µM) | 64 µg/mL (≈ 114 µM) | > 64 µg/mL | > 64 µg/mL | 32 µg/mL (≈ 57 µM) | 64 µg/mL (≈ 114 µM) | 32 µg/mL (≈ 57 µM) | 64 µg/mL (≈ 114 µM) | 64 µg/mL (≈ 114 µM) | 0.5 µg/mL (≈ 0.891 µM) | 4 µg/mL (≈ 7.13 µM) | > 64 µg/mL
15 | Clc1ccc(C(Cn2cnnn2)[Se][Se]C(Cn2cnnn2)c2ccc(Cl)cc2Cl)c(Cl)c1 (stereo not drawn) | 64 µg/mL (≈ 99.7 µM) | 64 µg/mL (≈ 99.7 µM) | > 64 µg/mL | > 64 µg/mL | > 64 µg/mL | – | – | – | – | – | – | – | –
16 | CCC(C)n1ncn(-c2ccc(N3CCN(c4ccc(OCC5COC(Cn6cncn6)(c6ccc(Cl)cc6Cl)O5)cc4)CC3)cc2)c1=O (stereo not drawn) [ITRACONAZOLE] | 8 µg/mL (≈ 11.3 µM) | > 64 µg/mL | > 64 µg/mL | > 64 µg/mL | > 64 µg/mL | – | – | – | – | – | – | – | –
17 | Fc1ccc(C(Cn2cncn2)[Se]C(Cn2cncn2)c2ccc(F)cc2F)c(F)c1 (stereo not drawn) | 32 µg/mL (≈ 64.6 µM) | 8 µg/mL (≈ 16.2 µM) | 32 µg/mL (≈ 64.6 µM) | 16 µg/mL (≈ 32.3 µM) | 16 µg/mL (≈ 32.3 µM) | 4 µg/mL (≈ 8.08 µM) | 64 µg/mL (≈ 129 µM) | > 64 µg/mL | > 64 µg/mL | > 64 µg/mL | 8 µg/mL (≈ 16.2 µM) | 4 µg/mL (≈ 8.08 µM) | > 64 µg/mL
18 | Clc1ccc(C(Cn2cnnn2)[Se]C(Cn2cnnn2)c2ccc(Cl)cc2Cl)c(Cl)c1 (stereo not drawn) | > 64 µg/mL | > 64 µg/mL | > 64 µg/mL | > 64 µg/mL | > 64 µg/mL | > 64 µg/mL | > 64 µg/mL | > 64 µg/mL | > 64 µg/mL | > 64 µg/mL | > 64 µg/mL | > 64 µg/mL | > 64 µg/mL
19 | Fc1ccc(C(Cn2cnnn2)[Se]C(Cn2cnnn2)c2ccc(F)cc2F)c(F)c1 (stereo not drawn) | > 64 µg/mL | > 64 µg/mL | > 64 µg/mL | > 64 µg/mL | > 64 µg/mL | > 64 µg/mL | > 64 µg/mL | > 64 µg/mL | > 64 µg/mL | > 64 µg/mL | > 64 µg/mL | > 64 µg/mL | > 64 µg/mL
20 | Clc1ccc(C(Cn2cnnn2)[Se][Se]C(Cn2cnnn2)c2ccc(Cl)cc2)cc1 (stereo not drawn) | > 64 µg/mL | > 64 µg/mL | > 64 µg/mL | > 64 µg/mL | > 64 µg/mL | – | – | – | – | – | – | – | –
21 | Fc1ccc(C(Cn2cncn2)[Se][Se]C(Cn2cncn2)c2ccc(F)cc2)cc1 (stereo not drawn) | 4 µg/mL (≈ 7.43 µM) | 16 µg/mL (≈ 29.7 µM) | 64 µg/mL (≈ 119 µM) | 16 µg/mL (≈ 29.7 µM) | 16 µg/mL (≈ 29.7 µM) | – | – | – | – | – | – | – | –
22 | Fc1ccc(C(Cn2ccnn2)[Se][Se]C(Cn2ccnn2)c2ccc(F)cc2F)c(F)c1 (stereo not drawn) | 4 µg/mL (≈ 6.96 µM) | 16 µg/mL (≈ 27.9 µM) | > 64 µg/mL | > 64 µg/mL | > 64 µg/mL | – | – | – | – | – | – | – | –
23 | Fc1ccc(C(Cn2cnnn2)[Se][Se]C(Cn2cnnn2)c2ccc(F)cc2F)c(F)c1 (stereo not drawn) | > 64 µg/mL | 64 µg/mL (≈ 111 µM) | > 64 µg/mL | > 64 µg/mL | > 64 µg/mL | – | – | – | – | – | – | – | –
24 | Fc1ccc(C(Cn2ccnn2)[Se][Se]C(Cn2ccnn2)c2ccc(F)cc2)cc1 (stereo not drawn) | 32 µg/mL (≈ 59.4 µM) | > 64 µg/mL | > 64 µg/mL | > 64 µg/mL | > 64 µg/mL | – | – | – | – | – | – | – | –
